Measurements taken from the Deep4Chem optical property database.
Where “and” joins values, the source holds several entries; their conditions need not be identical. Equal values may be shown once. Blank lines part the entries; values can stand above or below the molecule they belong to.

Experiment: solvent given as SMILES

Compound: CCN1C(=CC2=C([O-])C(=CC3=[N+](CC)c4ccccc4C3(C)C)C2=O)C(C)(C)c2ccccc21
emission maximum (in CO): 644 nm
emission maximum (in ClC(Cl)Cl): 645 nm

Compound: C(=C\c1ccc(-n2c3ccccc3c3ccccc32)cc1)/c1ccc(-c2ccc(/C=C/c3ccc(-n4c5ccccc5c5ccccc54)cc3)cc2)cc1
emission maximum (in Cc1ccccc1): 420 nm
emission maximum (in c1ccc2c(c1)c1ccccc1n2-c1ccc(-c2ccc(-n3c4ccccc4c4ccccc43)cc2)cc1): 438 nm

Compound: CC(C)(C)c1ccc2c(c1)c1cc(C(C)(C)C)ccc1n2-c1cccc(C(=O)c2cccc(-n3c4ccc(C(C)(C)C)cc4c4cc(C(C)(C)C)ccc43)n2)n1
emission maximum (in C1CCOC1): 378.66 nm
emission maximum (in Cc1ccccc1): 381.64 nm
emission maximum (in ClCCl): 383.6 nm

Compound: C(#Cc1cccc(C#Cc2ccc(-n3c4ccccc4c4ccccc43)cc2)c1)c1ccc(-n2c3ccccc3c3ccccc32)cc1
emission maximum (in CC#N): 425 nm
emission maximum (in CCCCC): 366 nm
emission maximum (in CO): 412 nm
emission maximum (in Cc1ccccc1): 374 nm
emission maximum (in ClC(Cl)Cl): 368 nm
emission maximum (in ClCCl): 394 nm

Compound: CCOC(=O)c1sc2nc3c(c(C#N)c2c1N)CCCC3
emission maximum (in c1ccccc1): 545 nm

Compound: Cc1ccccc1N(c1ccc(C(C)(C)C)cc1)c1ccc2ccc3c(N(c4ccc(C(C)(C)C)cc4)c4ccccc4C)ccc4ccc1c2c43
emission maximum (in Cc1ccccc1): 462 nm

Compound: O=C1c2ccccc2-c2nc3c(F)c(F)c(F)c(F)c3n21
emission maximum (in ClCCl): 485 nm

Compound: Cc1cc(/N=C/c2cc(S(=O)(=O)[O][Na])ccc2O)c(/N=C/c2cc(S(=O)(=O)[O][Na])ccc2O)cc1C
emission maximum (in O): 426 nm

Compound: Cc1nc2c(ccc3ccc(N(C)C)cc32)oc1=O
emission maximum (in c1ccccc1): 564 nm

Compound: CCCCc1ccc2ccc3c(CCCC)cc(CCCC)c4ccc1c2c34
emission maximum (in CCCCCC): 384 nm
emission maximum (in CO): 384 nm
emission maximum (in ClCCl): 385 nm

Compound: CC/[NH+]=c1\cc2oc3cc(NCCC(=O)NC(C)C(=O)OC)c4ccccc4c3nc-2cc1C (stereo not given)
emission maximum (in CCO): 644 nm

Compound: COc1ccc(OC)c(C(C)=O)c1
emission maximum (in CO): 449 nm

Compound: COC(=O)c1c(C(=O)OC)c2ccc(C)nn2c1C
emission maximum (in CCCCCC): 449 nm

Compound: c1ccc2sc(-c3ccc(-c4nnc(-c5ccc(-c6nnc(-c7ccc(-c8cc9ccccc9s8)s7)o6)cc5)o4)s3)cc2c1
emission maximum (in C1COCCO1): 397 nm
emission maximum (in CC#N): 399 nm
emission maximum (in CC(=O)N(C)C): 406 nm
emission maximum (in CCCCCCCCCCO): 389 nm
emission maximum (in CCCCCCCCO): 399 nm
emission maximum (in CCCCCCO): 399 nm
emission maximum (in CCCCO): 399 nm
emission maximum (in CCO): 400 nm
emission maximum (in CS(C)=O): 423 nm
emission maximum (in Cc1ccccc1): 399 nm
emission maximum (in ClC(Cl)Cl): 399 nm

Compound: CCCCc1cc(-c2cccc(COC)c2)oc1-c1cccc(-c2cc(CCCC)c(-c3cccc(-c4cc(CCCC)c(-c5cccc(-c6oc(-c7cccc(-c8oc(-c9cccc(-c%10oc(-c%11cccc(COC)c%11)cc%10CCCC)c9)cc8CCCC)c7)cc6CCCC)c5)o4)c3)o2)c1
emission maximum (in ClC(Cl)Cl): 374 nm

Compound: CN(C)c1ccc(-c2cc(-c3ccc(N(C)C)cc3)ncn2)cc1
emission maximum (in ClCCl): 429 nm

Compound: CCN(CC)c1ccc2c(C)cc(=O)oc2c1
emission maximum (in C1CCCCC1): 395 nm
emission maximum (in CC#N): 430 nm
emission maximum (in CCCCCCCCO): 443 nm
emission maximum (in CCCCCCO): 444 nm
emission maximum (in CCCCO): 447 nm
emission maximum (in CCCO): 452 nm
emission maximum (in CCO): 454 nm and 451 nm
emission maximum (in CCOC(C)=O): 416 nm
emission maximum (in CO): 462 nm
emission maximum (in O): 470 nm
emission maximum (in OCC(O)CO): 463 nm

Compound: Cc1cc(=O)[nH]c(=O)[nH]1
emission maximum (in CC#N): 308 nm

Compound: CCOC(=O)c1c(-c2cc3ccc(OC)cc3oc2=O)nn(-c2cccc(C)c2)c1C(=O)OCC
emission maximum (in ClCCl): 422 nm

Compound: Cc1cc(=O)oc2c1cc(Br)c1occ(C)c12
emission maximum (in C1CCCCC1): 400 nm
emission maximum (in C1COCCO1): 407 nm
emission maximum (in CC#N): 413 nm
emission maximum (in CCO): 416 nm
emission maximum (in OCC(F)(F)F): 426 nm

Compound: c1cc(N2CCCC2)ccn1
emission maximum (in CC1CCCCC1): 313 nm
emission maximum (in CCO): 313 nm
emission maximum (in ClC(Cl)Cl): 313 nm

Compound: CCCCCCCCC1(CCCCCCCC)c2cc(-c3ccc([N+](=O)[O-])cc3)ccc2-c2ccc(-c3ccc([N+](=O)[O-])cc3)cc21
emission maximum (in CN(C)C=O): 569 nm
emission maximum (in CS(C)=O): 589 nm
emission maximum (in ClC(Cl)Cl): 538 nm

Compound: c1cc2cc(c1)c1ccc3ccc4ccc(cc4c3c1)c1ccc3ccc4ccc(cc4c3c1)c1cccc2c1
emission maximum (in Cc1ccccc1): 414 nm

Compound: Cc1cc(C)c(C2=C3C=C(c4ccc(C(C)(C)C)cc4)C(c4ccc(C(C)(C)C)cc4)=[N+]3[B-](F)(F)n3c2cc(-c2ccc(C(C)(C)C)cc2)c3-c2ccc(C(C)(C)C)cc2)c(C)c1
emission maximum (in C1CCCCC1): 639 nm
emission maximum (in C1CCOC1): 628 nm
emission maximum (in CC#N): 643 nm
emission maximum (in Cc1ccccc1): 645 nm
emission maximum (in ClCCl): 644 nm

Compound: N#CC(C#N)=C(/C=C/c1cn(-c2ccccc2)nc1-c1ccccc1)c1ccccc1
emission maximum (in C1CCOC1): 459 nm
emission maximum (in C1COCCO1): 461 nm
emission maximum (in CCO): 497 nm
emission maximum (in CCOC(C)=O): 487 nm
emission maximum (in CN(C)C=O): 504 nm
emission maximum (in CO): 496 nm
emission maximum (in CS(C)=O): 509 nm
emission maximum (in Cc1ccccc1): 460 nm
emission maximum (in ClC(Cl)Cl): 488 nm
emission maximum (in ClCCl): 489 nm

Compound: CCC1(CC)c2cc(C#Cc3cc(C#Cc4ccc5c(c4)C(CC)(CC)c4cc(N(c6ccccc6)c6ccccc6)ccc4-5)c4ccc5c(C#Cc6ccc7c(c6)C(CC)(CC)c6cc(N(c8ccccc8)c8ccccc8)ccc6-7)cc(C#Cc6ccc7c(c6)C(CC)(CC)c6cc(N(c8ccccc8)c8ccccc8)ccc6-7)c6ccc3c4c65)ccc2-c2ccc(N(c3ccccc3)c3ccccc3)cc21
emission maximum (in C1CCCCC1): 524 nm
emission maximum (in C1CCOC1): 552 nm
emission maximum (in CCOC(C)=O): 545 nm
emission maximum (in CN(C)C=O): 557 nm
emission maximum (in Cc1ccccc1): 535 nm
emission maximum (in ClC(Cl)Cl): 545 nm
emission maximum (in ClCCl): 567 nm

Compound: COc1ccc(N(c2ccc(C=C(c3ccccc3)c3ccccc3)cc2)c2ccc(C=C(c3ccccc3)c3ccccc3)cc2)cc1
emission maximum (in Cc1ccccc1): 477 nm

Second part, the molecule after the results:

emission maximum (in CC#N): 491 nm
Compound: C(=C\c1nc(-c2ccccc2)c2ccccn12)/c1nc(-c2ccccc2)c2ccccn12

emission maximum (in C1CCCCC1): 329 nm
emission maximum (in CC#N): 340 nm
emission maximum (in CO): 345 nm
emission maximum (in O): 350 nm
Compound: CCOC(=O)CCOc1ccccc1C(c1c(C)[nH]c2ccccc12)c1c(C)[nH]c2ccccc12

emission maximum (in ClCCl): 568 nm
Compound: c1ccc(C2=C(c3ccccc3)c3cccc4c3c(cc3nc5cc(-c6ccc(N(c7ccccc7)c7ccccc7)cc6)c(-c6ccc(N(c7ccccc7)c7ccccc7)cc6)cc5nc34)O2)cc1

emission maximum (in ClCCl): 468 nm
Compound: c1ccc(-n2nc(-c3ccc(N4c5ccccc5Sc5ccccc54)cc3)nc2-c2ccccn2)cc1

emission maximum (in ClCCl): 605 nm
Compound: CN(C)c1ccc(C#Cc2cc(C#Cc3ccc(C(F)(F)F)cc3)c3ccc4c(C#Cc5ccc(N(C)C)cc5)cc(C#Cc5ccc(C(F)(F)F)cc5)c5ccc2c3c45)cc1

emission maximum (in ClCCl): 444 nm
Compound: CC1(C)C2=C(c3ccccc31)S(=O)(=O)c1ccccc12

emission maximum (in ClCCl): 556 nm
emission maximum (in c1ccccc1): 505 nm
Compound: CCCCN(CCCC)c1ccc(C#Cc2cc(C#Cc3c(F)c(F)c(F)c(F)c3F)c(C#Cc3c(F)c(F)c(F)c(F)c3F)cc2C#Cc2ccc(N(CCCC)CCCC)cc2)cc1

emission maximum (in ClCCl): 457 nm
Compound: CCOC(=O)c1c(-c2cc3ccccc3oc2=O)nn(-c2ccc(OC)cc2)c1C(=O)OCC

emission maximum (in ClC(Cl)Cl): 570 nm
Compound: O=c1c2ccccc2c2c(C#C[Si](c3ccccc3)(c3ccccc3)c3ccccc3)c3c(=O)c4ccccc4c3c(C#C[Si](c3ccccc3)(c3ccccc3)c3ccccc3)c12

emission maximum (in C1CCOC1): 495 nm
emission maximum (in CC#N): 525 nm
emission maximum (in CCO): 511 nm
emission maximum (in CCOC(C)=O): 496 nm
emission maximum (in CN(C)C=O): 523 nm
emission maximum (in ClCCl): 516 nm
emission maximum (in c1ccccc1): 466 nm
Compound: Cc1ccc([C@@H]2C[C@](O)(c3ccccn3)C[C@](O)(c3ccccn3)[C@H]2C(=O)c2ccc(N(c3ccccc3)c3ccccc3)cc2)cc1

emission maximum (in ClCCl): 500 nm
Compound: CCCCOc1c(-c2ccc(C=O)cc2)cc2cc(-c3ccc(C=O)cc3)c(OCCCC)c3c4c(OCCCC)c(-c5ccc(C=O)cc5)cc5cc(-c6ccc(C=O)cc6)c(OCCCC)c(c1c23)c54

emission maximum (in CC#N): 629 nm
Compound: CC1=CC(/C=C/c2ccc([N+](C)(C)C)cc2)=[N+]2C1=C(c1ccc(C#CCO[C@@H]3O[C@H](CO)[C@@H](O)C(O)[C@H]3O)cc1)c1c(C)cc(/C=C/c3ccc([N+](C)(C)C)cc3)n1[B-]2(F)F (stereo not given in full)

emission maximum (in C1CCCCC1): 645 nm
emission maximum (in CCOC(C)=O): 680 nm
Compound: CC1=[N+]2C(=C(c3ccc(N(c4ccccc4)c4ccccc4)cc3)c3ccc(C)n3[B-]2(F)F)C=C1c1cc2n(c1)[B-](F)(F)[N+]1=CC=CC1=C2c1c(C)cc(C)cc1C

emission maximum (in CC#N): 455 nm
emission maximum (in CCCCCC): 395 nm
Compound: C(=C\c1ccc(N(c2ccccc2)c2ccccc2)cc1)/c1ccccc1

emission maximum (in ClCCl): 682 nm
Compound: O=c1c2cccc3cccc(c32)c2nc3cccc4cccc(c43)n12

emission maximum (in ClCCl): 392 nm
Compound: CCn1c2ccc(-c3cccs3)cc2c2cc(-c3cccs3)ccc21

emission maximum (in ClC(Cl)Cl): 413 nm
Compound: C(#Cc1ccccc1)C(C#Cc1ccccc1)=Cc1cccc(C=C(C#Cc2ccccc2)C#Cc2ccccc2)c1

emission maximum (in ClCCl): 406 nm
Compound: CCOC(=O)c1c(-c2c(Cl)c3ccccc3oc2=O)nn(-c2ccccc2)c1C(=O)OCC

emission maximum (in ClCCl): 538 nm
Compound: CCc1cccc(CC)c1-c1c2ccccc2c(C#Cc2ccccc2)c2cc3ccccc3cc12

emission maximum (in C1CCOC1): 492 nm
Compound: c1ccc(/C(=C(\c2ccccc2)c2ccccc2-c2ccc(-c3ccccc3)cc2)c2ccccc2-c2ccc(-c3ccccc3)cc2)cc1

emission maximum (in ClCCl): 403 nm
Compound: COc1ccc(-c2ccc(-c3cc(-c4ccccn4)nc(-c4ccccn4)c3)cc2)cc1

emission maximum (in ClC(Cl)Cl): 480 nm
Compound: FC(F)(F)c1ccc(-c2nc(-c3ccc(C(F)(F)F)cc3)n3ccccc23)cc1

emission maximum (in ClCCl): 426 nm
Compound: CC(C)(C)c1ccc(-c2nc3c4ccccc4c4ccccc4c3n2-c2ccc(-c3ccc(N(c4ccccc4)c4ccccc4)cc3)cc2)cc1
